Data reported in PubChem BioAssay AID1845211 (Molecular Pharmacology Branch, DTP, NCI, 2023).

Tested on: NCI-H322M multicellular tumor spheroids, viability (% test/control)
Assay: Anticancer human tumor NCI-H322M cell line growth inhibition;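 for viability, T/C: spheroids exposed to compound for seven days before readout; 100% = DMSO vehicle control wells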
Conditions: for IC50: curve of first compound; for viability, T/C: stronger effect = lower value
Procedure, shortened: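 Single agents and combinations were tested on spheroids built from tumor cells plus HUVEC and hMSC, at half-log dilutions starting at or near clinical Cmax, else 10 microM; final DMSO 0.25% (v/v).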

[1] = second compound 1 µM, first compound 0.0316 µM
[2] = second compound 1 µM, first compound 0.1 µM
[3] = second compound 1 µM, first compound 0.316 µM
[4] = second compound 1 µM, first compound 1 µM
[5] = second compound 1 µM, first compound 3.16 µM
[6] = second compound 1 µM, first compound 10 µM
[7] = second compound 3.16 µM, first compound 0.0316 µM
[8] = second compound 3.16 µM, first compound 0.1 µM
[9] = second compound 3.16 µM, first compound 0.316 µM
[10] = second compound 3.16 µM, first compound 1 µM
[11] = second compound 3.16 µM, first compound 3.16 µM
[12] = second compound 3.16 µM, first compound 10 µM
[13] = second compound 10 µM, first compound 0.0316 µM
[14] = second compound 10 µM, first compound 0.1 µM
[15] = second compound 10 µM, first compound 0.316 µM
[16] = second compound 10 µM, first compound 1 µM
[17] = second compound 10 µM, first compound 3.16 µM
[18] = second compound 10 µM, first compound 10 µM
[19] = second compound 31.6 µM, first compound 0.0316 µM
[20] = second compound 31.6 µM, first compound 0.1 µM
[21] = second compound 31.6 µM, first compound 0.316 µM
[22] = second compound 31.6 µM, first compound 1 µM
[23] = second compound 31.6 µM, first compound 3.16 µM
[24] = second compound 31.6 µM, first compound 10 µM
[25] = second compound 100 µM, first compound 0.0316 µM
[26] = second compound 100 µM, first compound 0.1 µM
[27] = second compound 100 µM, first compound 0.316 µM
[28] = second compound 100 µM, first compound 1 µM
[29] = second compound 100 µM, first compound 3.16 µM
[30] = second compound 100 µM, first compound 10 µM

Cc1cc(C)c(CNC(=O)c2cc(-c3ccc(CN4CCOCC4)cc3)cc3c2cnn3C2CCCC2)c(=O)[nH]1 + Cn1nnc2c(C(N)=O)ncn2c1=O gave an IC50 (second compound 1 µM) greater than 10 µM, an IC50 (second compound 3.16 µM) greater than 10 µM and an IC50 (second compound 10 µM) greater than 10 µM. It also gave an IC50 (second compound 31.6 µM) greater than 10 µM, an IC50 (second compound 100 µM) greater than 10 µM and a viability, T/C [1] of 99.7%. For the same molecule, the viability, T/C [2] was 101%, the viability, T/C [3] was 98.5% and the viability, T/C [4] was 94.3%. It also gave a viability, T/C [5] of 133%, a viability, T/C [6] of 95.5% and a viability, T/C [7] of 78%. It also gave a viability, T/C [8] of 102%, a viability, T/C [9] of 103% and a viability, T/C [10] of 81.3%. For the same molecule, the viability, T/C [11] was 107%, the viability, T/C [12] was 118% and the viability, T/C [13] was 92.2%. The viability, T/C [14] was 94.3%, the viability, T/C [15] was 105% and the viability, T/C [16] was 106%. It also gave a viability, T/C [17] of 101%, a viability, T/C [18] of 119% and a viability, T/C [19] of 101%. It also gave a viability, T/C [20] of 95%, a viability, T/C [21] of 103% and a viability, T/C [22] of 104%. For the same molecule, the viability, T/C [23] was 104%, the viability, T/C [24] was 122% and the viability, T/C [25] was 105%. The viability, T/C [26] was 100%, the viability, T/C [27] was 113% and the viability, T/C [28] was 96.8%. It also gave a viability, T/C [29] of 105% and a viability, T/C [30] of 123%.

Cc1sc2c(c1C)C(c1ccc(Cl)cc1)=NC(CC(=O)Nc1ccc(O)cc1)c1nnc(C)n1-2 (stereo not given) + Cn1nnc2c(C(N)=O)ncn2c1=O gave an IC50 (second compound 1 µM) greater than 3 µM, an IC50 (second compound 3.16 µM) greater than 3 µM and an IC50 (second compound 10 µM) greater than 3 µM. It also gave an IC50 (second compound 31.6 µM) greater than 3 µM, an IC50 (second compound 100 µM) greater than 3 µM and a viability, T/C (second compound 1 µM, first compound 0.00949 µM) of 109%. The viability, T/C (second compound 1 µM, first compound 0.03 µM) was 105%, the viability, T/C (second compound 1 µM, first compound 0.0949 µM) was 134% and the viability, T/C (second compound 1 µM, first compound 0.3 µM) was 114%. The viability, T/C (second compound 1 µM, first compound 0.949 µM) was 81.2%, the viability, T/C (second compound 1 µM, first compound 3 µM) was 80.3% and the viability, T/C (second compound 3.16 µM, first compound 0.00949 µM) was 104%. It also gave a viability, T/C (second compound 3.16 µM, first compound 0.03 µM) of 113%, a viability, T/C (second compound 3.16 µM, first compound 0.0949 µM) of 120% and a viability, T/C (second compound 3.16 µM, first compound 0.3 µM) of 103%. For the same molecule, the viability, T/C (second compound 3.16 µM, first compound 0.949 µM) was 87.6%, the viability, T/C (second compound 3.16 µM, first compound 3 µM) was 73.5% and the viability, T/C (second compound 10 µM, first compound 0.00949 µM) was 107%. The viability, T/C (second compound 10 µM, first compound 0.03 µM) was 124%, the viability, T/C (second compound 10 µM, first compound 0.0949 µM) was 129% and the viability, T/C (second compound 10 µM, first compound 0.3 µM) was 113%. For the same molecule, the viability, T/C (second compound 10 µM, first compound 0.949 µM) was 90.2%, the viability, T/C (second compound 10 µM, first compound 3 µM) was 74.5% and the viability, T/C (second compound 31.6 µM, first compound 0.00949 µM) was 111%. The viability, T/C (second compound 31.6 µM, first compound 0.03 µM) was 130%, the viability, T/C (second compound 31.6 µM, first compound 0.0949 µM) was 120% and the viability, T/C (second compound 31.6 µM, first compound 0.3 µM) was 115%. For the same molecule, the viability, T/C (second compound 31.6 µM, first compound 0.949 µM) was 91.2%, the viability, T/C (second compound 31.6 µM, first compound 3 µM) was 71.9% and the viability, T/C (second compound 100 µM, first compound 0.00949 µM) was 116%. For the same molecule, the viability, T/C (second compound 100 µM, first compound 0.03 µM) was 124%, the viability, T/C (second compound 100 µM, first compound 0.0949 µM) was 116% and the viability, T/C (second compound 100 µM, first compound 0.3 µM) was 111%. The viability, T/C (second compound 100 µM, first compound 0.949 µM) was 92.7% and the viability, T/C (second compound 100 µM, first compound 3 µM) was 82%.

In the case of [2H]c1nc(C)nc([2H])c1-c1cc(NC[C@@H](C)c2cccc3c(C(=O)NC)ccnc23)ncn1 + Cn1nnc2c(C(N)=O)ncn2c1=O, the IC50 (second compound 1 µM) is reported as greater than 10 µM, the IC50 (second compound 3.16 µM) is reported as greater than 10 µM and the IC50 (second compound 10 µM) is reported as greater than 10 µM. For the same molecule, the IC50 (second compound 31.6 µM) was greater than 10 µM, the IC50 (second compound 100 µM) was greater than 10 µM and the viability, T/C [1] was 103%. The viability, T/C [2] was 101%, the viability, T/C [3] was 93% and the viability, T/C [4] was 116%. The viability, T/C [5] was 88.2%, the viability, T/C [6] was 84.4% and the viability, T/C [7] was 105%. For the same molecule, the viability, T/C [8] was 92.1%, the viability, T/C [9] was 94% and the viability, T/C [10] was 97.5%. For the same molecule, the viability, T/C [11] was 100%, the viability, T/C [12] was 99.3% and the viability, T/C [13] was 85.5%. For the same molecule, the viability, T/C [14] was 80.7%, the viability, T/C [15] was 77.9% and the viability, T/C [16] was 99.2%. It also gave a viability, T/C [17] of 107%, a viability, T/C [18] of 116% and a viability, T/C [19] of 81.8%. It also gave a viability, T/C [20] of 89.3%, a viability, T/C [21] of 89.9% and a viability, T/C [22] of 91.9%. It also gave a viability, T/C [23] of 102%, a viability, T/C [24] of 99.5% and a viability, T/C [25] of 96.8%. It also gave a viability, T/C [26] of 88.9%, a viability, T/C [27] of 100% and a viability, T/C [28] of 92.5%. The viability, T/C [29] was 91.8% and the viability, T/C [30] was 95.3%.
